Type in all cases: cell-based
Assay [1] concerns human invasive breast cancer cells (MDA-MB-231). The assay can be described thus: Cytotoxicity test (MTT assay) on MDA-MB-231 cells. The conditions noted are these: for IC50: MDA-MB-231, 72 h exposure, MTT assay, human invasive breast cancer cells; for SC, selectivity coefficient, IC50 MCF-10A/IC50 MDA-MB-231: ratio of 72 h IC50 values, MCF-10A over MDA-MB-231. On the procedure:
(§1) MDA-MB-231 breast adenocarcinoma cells (ATCC® HTB-26™), MCF-10a human mammary epithelial cells (ATCC® CRL-10317™) and HEK293 human embryonic kidney cells (ATCC® CRL-1573™) were obtained from ATCC (Middlesex, UK), the A2780 human ovarian carcinoma cell line was obtained from the European Collection of Cell Cultures (catalogue number 93112519, Salisbury, U.K.). All cell culture media were purchased from Life Technologies (Zug, Switzerland). A2780 cells were cultured in RPMI-1640 medium (Gibco, GlutaMax), while MDA-MB-231 and HEK293 cells were cultured in Dulbecco's Modified Eagle Medium (DMEM, Gibco, GlutaMax) supplemented with 10% fetal bovine serum (FBS, Sigma-Aldrich, Buchs, Switzerland) and 1% penicillin/streptomycin (Life Technologies, Zug, Switzerland). MCF-10A were cultured in DMEM/F12 medium containing 10% horse serum and 1% antibiotics, supplemented with 10 μg/mL insulin, 20 μg/mL hydrocortisone, 20 ng/mL epidermal growth factor and 100 ng/mL cholera toxin (all from Sigma Aldrich, Buchs, Switzerland). Cells were incubated in a CO2 incubator with 5% CO2 and 100% relative humidity at 37° C. MTT (MTT=3-(4,5-dimethyl-2-thiazolyl)-2,5-diphenyl-2H-tetrazolium bromide) was purchased from Calbiochem (Zug, Switzerland). Cell viability was determined by the MTT assay. The absorption was read using a SpectraMax M52 microplate reader (Molecular Devices, Sunnyvale, Calif., USA).
(§2) Cells were seeded in 96-well plates as monolayers with 100 μL of cell suspension (approximately 5000 cells) per well and preincubated for 24 h in medium supplemented with 10% FBS. With the exception of dacarbazine, all compounds were dissolved in DMSO. In the case of dacarbazine, an aqueous stock solution of the monocitrate was prepared in situ and immediately used (light sensitivity). The stock solutions were serially diluted in the culture medium to the appropriate concentration, to give a final DMSO concentration of no higher than 0.5%. 100 μL of the compound solution was added to each well, and the plates were incubated for 72 h. Subsequently, MTT (5 mg/mL solution) was added to the cells and the plates were incubated for a further 2 h. The culture medium was aspirated and the purple formazan crystals formed by the mitochondrial dehydrogenase activity of vital cells were dissolved in DMSO. The optical density, directly proportional to the number of surviving cells, was quantified at 590 nm using a multiwell plate reader, and the fraction of surviving cells was calculated from the absorbance of untreated control cells. Evaluation is based on means from at least two independent experiments, each comprising triplicates per concentration level.
In general terms: Tetrazolium assays rely on reduction of a dye to a coloured formazan, in cell work by metabolically active cells.

Assay [2] has as its system non-cancer human embryonic kidney cells (HEK293). As to the kind of experiment: Cytotoxicity test (MTT assay) on HEK293 cells. The conditions noted are these: 72 h exposure. The method, then:
as §1, §2

Assay [3] has as its system human mammary epithelial cells (MCF-10A). As to the kind of experiment: Cytotoxicity test (MTT assay) on MCF-10A cells. The conditions noted are these: 72 h exposure. On the procedure: as §1, §2
The test system of assay [4] is human ovarian cancer cells (A2780). As to the kind of experiment: Cytotoxicity test (MTT assay) on A2780 cells. The conditions noted are these: 72 h exposure. The method, then: as §1, §2

A word on the IC50: it is the concentration that gives 50% inhibition. The low end stands for higher potency, the high end for lower potency.

With `CC(C)N(N=NC#Cc1ccccc1)C(C)C` [Compound 1, 3,3-Diisopropyl-1-(phenylethynyl)triaz-1-ene], the IC50 in assay [1] is > 500 µM; in assay [2] it was 44 ± 11 µM; in assay [3], 116 ± 2 µM; in assay [4], 56 ± 4 µM.
For `CCCCC#CN=NN(C(C)C)C(C)C` [Compound 6, 1-(Hex-1-ynyl)-3,3-diisopropyltriaz-1-ene], the half-maximal inhibitory concentration (IC50) in assay [1] came out at 199 ± 21 µM; in assay [2], 165 ± 65 µM; in assay [3], 254 ± 52 µM; in assay [4], 143 ± 29 µM. In addition, the “SC, selectivity coefficient, IC50 MCF-10A/IC50 MDA-MB-231” value (“SC, selectivity coefficient” for short) in assay [1] came out at 1.2.
For `CC(C)N(N=NC#CC(C)(C)C)C(C)C` [Compound 2, 1-(3,3-Dimethylbut-1-ynyl)-3,3-diisopropyltriaz-1-ene] the same measures were 176 ± 60 µM, 125 ± 5 µM, 299 ± 43 µM, 160 ± 40 µM and 1.7.
For the molecule `CC(C)N(C)N=NC#CC(C)(C)C` [Compound 4, 1-(3,3-Dimethylbut-1-ynyl)-3-isopropyl-3-methyltriaz-1-ene], the IC50 in assay [1] was 70 ± 10 µM; in assay [2], 29 ± 4 µM; in assay [3] it was 192 ± 12 µM; in assay [4], 32 ± 4 µM. Also, the “SC, selectivity coefficient” value in assay [1] was determined as 2.7.
`CC(C)N(C)N=NC#CCN(C)C` [Compound 10, 3-(3-Isopropyl-3-methyltriaz-1-enyl)-N,N-dimethylprop-2-yn-1-amine]: the IC50 in assay [1] was 14 ± 2 µM; in assay [2] it was 21 ± 5 µM; in assay [3] it was 86 ± 4 µM; in assay [4], 34 ± 4 µM. In addition, the “SC, selectivity coefficient” value in assay [1] is recorded as 6.1.
For `COCC#CN=NN(C)C(C)C` [Compound 9, 3-Isopropyl-1-(3-methoxyprop-1-ynyl)-3-methyltriaz-1-ene] the same measures were 32 ± 4 µM, 14 ± 1 µM, 208 ± 49 µM, 20 ± 3 µM and 6.5.
On to `CN(C)CC#CN=NN(C)C` [Compound 15, 3-(3,3-Dimethyltriaz-1-enyl)-N,N-dimethylprop-2-yn-1-amine], for which the IC50 worked out at 45 ± 15 µM in assay [1], 15 ± 4 µM in assay [2], 113 ± 7 µM in assay [3] and 47 ± 3 µM in assay [4]. Further, the “SC, selectivity coefficient” value in assay [1] was determined as 2.4.
As to `CN(C)N=NC#CC(C)(C)C` [Compound 5, 1-(3,3-Dimethylbut-1-ynyl)-3,3-dimethyltriaz-1-ene], the IC50 in assay [1] is 38 ± 3 µM; in assay [2] it was 19 ± 2 µM; in assay [3], 52 ± 11 µM; in assay [4], 22 ± 3 µM. Also, in assay [1], the “SC, selectivity coefficient” value is on record as 1.4.
For `COCC#CN=NN(C)C` [Compound 14, 1-(3-Methoxyprop-1-ynyl)-3,3-dimethyltriaz-1-ene], the IC50 in assay [1] turned out to be 72 ± 9 µM; in assay [2] it was 24 ± 4 µM; in assay [3], 177 ± 23 µM; in assay [4], 43 ± 6 µM. Further, the “SC, selectivity coefficient” value in assay [1] was found to be 2.5.

The record behind these values is patent publication US10221198B2, “Preparation and medical use of triazenes” (Ecole Polytechnique Federale De Lausanne (EPFL), priority 2014, dated 2019).
